Laboratory results taken from PubChem BioAssay AID248 (DTP/NCI, 2004).
Several values for one entry are separate records, joined by “and”; a condition that tells them apart may be missing. Equal entries are not always repeated. Inconclusive results and toxic doses are left out. No stated cut-off is given here; in the data, active means T/C of 150% or more; inactive means T/C below 125%.

Test system: L1210 leukemia ip in BDF1 mice, survival T/C
Assay: NCI In Vivo Anticancer Drug Screen. Data for tumor model L1210 Leukemia (intraperitoneal) in B6D2F1 (BDF1) mice
Conditions: endpoint: mean survival time, higher = longer survival
How it was run: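 In this screen, tumor-bearing mice given compound are compared to those given vehicle, and their survival values are reported as a treated-to-control quotient.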

Measured: T/C

CN(C)c1ccc(Nc2c3ccccc3nc3ccccc23)cc1
inactive: dose: 3.13 mg/kg/injection, schedule: Q03HX040 (ip), vehicle: saline 106 % of control | dose: 3.75 mg/kg/injection, schedule: Q01DX Z (ip), vehicle: saline 107 % of control | dose: 3.75 mg/kg/injection, schedule: Q01DX Z (oral), vehicle: olive oil, sesame oil, peanut oil 116 % of control | dose: 5.0 mg/kg/injection, schedule: Q01DX005 (ip), vehicle: saline 107 % of control | dose: 5.0 mg/kg/injection, schedule: Q01DX009 (ip), vehicle: saline 107 % of control | dose: 5.0 mg/kg/injection, schedule: Q01DX009 (sc), vehicle: saline 101 % of control | dose: 6.12 mg/kg/injection, schedule: Q03HX008 (ip), vehicle: saline 107 % of control | dose: 6.25 mg/kg/injection, schedule: Q03HX008 (ip), vehicle: saline 104 % of control | dose: 6.25 mg/kg/injection, schedule: Q03HX016 (ip), vehicle: saline 103 % of control | dose: 7.0 mg/kg/injection, schedule: Q01DX Z (sc), vehicle: steriod suspending solution 104 % of control | dose: 7.5 mg/kg/injection, schedule: Q01DX Z (ip), vehicle: saline 110 % of control | dose: 10.0 mg/kg/injection, schedule: Q01DX005 (ip), vehicle: saline 108 % of control | dose: 10.0 mg/kg/injection, schedule: Q01DX009 (ip), vehicle: saline 117 % of control | dose: 10.0 mg/kg/injection, schedule: Q01DX009 (oral), vehicle: saline 118 % of control | dose: 10.0 mg/kg/injection, schedule: Q01DX009 (sc), vehicle: saline 102 % of control | dose: 10.0 mg/kg/injection, schedule: Q01DX Z (sc), vehicle: steriod suspending solution 115 % of control | dose: 12.5 mg/kg/injection, schedule: Q01DX Z (im), vehicle: saline 108 % of control | dose: 12.5 mg/kg/injection, schedule: Q04DX003 (ip), vehicle: saline 104 % of control | dose: 12.5 mg/kg/injection, schedule: Q06HX004 (ip), vehicle: saline 115 % of control | dose: 12.5 mg/kg/injection, schedule: Q#A X Z (oral), vehicle: saline 112 % of control | dose: 15.0 mg/kg/injection, schedule: Q01DX Z (oral), vehicle: olive oil, sesame oil, peanut oil 115 % of control | dose: 15.0 mg/kg/injection, schedule: Q01DX Z (sc), vehicle: steriod suspending solution 107 % of control | dose: 16.0 mg/kg/injection, schedule: Q01DX Z (ip), vehicle: carboxymethylcellulose (CMC) 112 % of control | dose: 17.5 mg/kg/injection, schedule: Q#A X Z (ip), vehicle: saline 116 % of control | dose: 19.0 mg/kg/injection, schedule: Q03DX006 (oral), vehicle: saline 112 % of control | dose: 20.0 mg/kg/injection, schedule: Q01DX009 (oral), vehicle: saline 101 % of control | dose: 20.0 mg/kg/injection, schedule: Q01DX009 (sc), vehicle: saline 100 % of control | dose: 22.5 mg/kg/injection, schedule: Q01DX009 (ip), vehicle: saline 120 % of control | dose: 23.0 mg/kg/injection, schedule: Q01DX Z (sc), vehicle: steriod suspending solution 115 % of control and 119 % of control | dose: 24.0 mg/kg/injection, schedule: Q01DX Z (ip), vehicle: carboxymethylcellulose (CMC) 120 % of control | dose: 24.0 mg/kg/injection, schedule: Q01DX Z (ip), vehicle: saline 111 % of control | dose: 25.0 mg/kg/injection, schedule: Q01DX001 (oral), vehicle: saline 96 % of control | dose: 25.0 mg/kg/injection, schedule: Q01DX001 (sc), vehicle: saline 96 % of control | dose: 25.0 mg/kg/injection, schedule: Q01DX005 (ip), vehicle: Klucel (hydroxypropylcellulose) (HPC) 112 % of control | dose: 25.0 mg/kg/injection, schedule: Q01DX005 (ip), vehicle: other 108 % of control and 114 % of control | dose: 25.0 mg/kg/injection, schedule: Q01DX009 (ip), vehicle: saline 116 % of control | dose: 25.0 mg/kg/injection, schedule: Q01DX Z (im), vehicle: saline 108 % of control | dose: 25.0 mg/kg/injection, schedule: Q01DX Z (oral), vehicle: saline 120 % of control | dose: 27.0 mg/kg/injection, schedule: Q01DX Z (oral), vehicle: saline 115 % of control | dose: 30.0 mg/kg/injection, schedule: Q01DX Z (ip), vehicle: olive oil, sesame oil, peanut oil 116 % of control | dose: 30.0 mg/kg/injection, schedule: Q01DX Z (sc), vehicle: olive oil, sesame oil, peanut oil 114 % of control | dose: 30.0 mg/kg/injection, schedule: Q01DX Z (sc), vehicle: saline 114 % of control | dose: 35.0 mg/kg/injection, schedule: Q01DX Z (ip), vehicle: carboxymethylcellulose (CMC) 118 % of control | dose: 35.0 mg/kg/injection, schedule: Q01DX Z (ip), vehicle: saline 101 % of control and 111 % of control | dose: 35.0 mg/kg/injection, schedule: Q01DX Z (sc), vehicle: steriod suspending solution 113 % of control | dose: 37.0 mg/kg/injection, schedule: Q03DX006 (oral), vehicle: saline 118 % of control | dose: 40.0 mg/kg/injection, schedule: Q01DX009 (sc), vehicle: saline 105 % of control | dose: 50.0 mg/kg/injection, schedule: Q01DX001 (oral), vehicle: saline 105 % of control | dose: 50.0 mg/kg/injection, schedule: Q01DX001 (sc), vehicle: saline 97 % of control | dose: 50.0 mg/kg/injection, schedule: Q01DX005 (ip), vehicle: other 112 % of control | dose: 50.0 mg/kg/injection, schedule: Q01DX Z (im), vehicle: saline 116 % of control | dose: 50.0 mg/kg/injection, schedule: Q01DX Z (oral), vehicle: saline 117 % of control | dose: 50.0 mg/kg/injection, schedule: Q04DX003 (ip), vehicle: Klucel (hydroxypropylcellulose) (HPC) 111 % of control | dose: 50.0 mg/kg/injection, schedule: Q04DX003 (ip), vehicle: other 108 % of control and 119 % of control | dose: 50.0 mg/kg/injection, schedule: Q#A X Z (oral), vehicle: saline 118 % of control | dose: 53.0 mg/kg/injection, schedule: Q01DX Z (sc), vehicle: saline 113 % of control | dose: 53.0 mg/kg/injection, schedule: Q01DX Z (sc), vehicle: steriod suspending solution 115 % of control | dose: 53.3 mg/kg/injection, schedule: Q01DX Z (ip), vehicle: carboxymethylcellulose (CMC) 115 % of control | dose: 53.3 mg/kg/injection, schedule: Q01DX Z (ip), vehicle: methylcellulose (MC) 111 % of control | dose: 60.0 mg/kg/injection, schedule: Q01DX Z (oral), vehicle: olive oil, sesame oil, peanut oil 120 % of control | dose: 60.0 mg/kg/injection, schedule: Q01DX Z (sc), vehicle: olive oil, sesame oil, peanut oil 117 % of control | dose: 80.0 mg/kg/injection, schedule: Q01DX Z (ip), vehicle: methylcellulose (MC) 95 % of control | dose: 80.0 mg/kg/injection, schedule: Q01DX Z (sc), vehicle: saline 107 % of control | dose: 90.0 mg/kg/injection, schedule: Q01DX009 (ip), vehicle: saline 119 % of control | dose: 100.0 mg/kg/injection, schedule: Q01DX001 (oral), vehicle: saline 112 % of control | dose: 100.0 mg/kg/injection, schedule: Q01DX001 (sc), vehicle: saline 108 % of control | dose: 100.0 mg/kg/injection, schedule: Q01DX005 (ip), vehicle: other 100 % of control | dose: 100.0 mg/kg/injection, schedule: Q04DX003 (ip), vehicle: other 112 % of control | dose: 105.0 mg/kg/injection, schedule: Q01DX Z (ip), vehicle: saline 114 % of control | dose: 120.0 mg/kg/injection, schedule: Q01DX Z (oral), vehicle: olive oil, sesame oil, peanut oil 111 % of control | dose: 120.0 mg/kg/injection, schedule: Q01DX Z (sc), vehicle: saline 120 % of control | dose: 125.0 mg/kg/injection, schedule: Q01DX001 (ip), vehicle: Klucel (hydroxypropylcellulose) (HPC) 115 % of control | dose: 125.0 mg/kg/injection, schedule: Q01DX001 (ip), vehicle: saline 111 % of control | dose: 135.0 mg/kg/injection, schedule: Q#A X Z (ip), vehicle: saline 97 % of control | dose: 175.0 mg/kg/injection, schedule: Q01DX001 (oral), vehicle: saline 108 % of control and 121 % of control | dose: 175.0 mg/kg/injection, schedule: Q07DX003 (oral), vehicle: saline 117 % of control | dose: 180.0 mg/kg/injection, schedule: Q01DX Z (ip), vehicle: carboxymethylcellulose (CMC) 96 % of control and 108 % of control and 110 % of control | dose: 180.0 mg/kg/injection, schedule: Q01DX Z (sc), vehicle: saline 97 % of control | dose: 200.0 mg/kg/injection, schedule: Q01DX001 (oral), vehicle: saline 107 % of control | dose: 200.0 mg/kg/injection, schedule: Q01DX001 (sc), vehicle: saline 103 % of control | dose: 245.0 mg/kg/injection, schedule: Q01DX Z (ip), vehicle: saline 110 % of control | dose: 400.0 mg/kg/injection, schedule: Q01DX Z (im), vehicle: saline 93 % of control | dose: 405.0 mg/kg/injection, schedule: Q01DX Z (ip), vehicle: saline 100 % of control and 113 % of control | dose: 480.0 mg/kg/injection, schedule: Q01DX Z (sc), vehicle: saline 109 % of control | dose: 540.0 mg/kg/injection, schedule: Q01DX Z (ip), vehicle: saline 119 % of control | dose: 600.0 mg/kg/injection, schedule: Q03DX006 (oral), vehicle: saline 101 % of control | dose: 608.0 mg/kg/injection, schedule: Q01DX Z (ip), vehicle: saline 114 % of control | dose: 700.0 mg/kg/injection, schedule: Q01DX001 (oral), vehicle: saline 115 % of control | dose: 912.0 mg/kg/injection, schedule: Q01DX Z (ip), vehicle: saline 115 % of control | dose: 1000.0 mg/kg/injection, schedule: Q01DX001 (ip), vehicle: Klucel (hydroxypropylcellulose) (HPC) 109 % of control | dose: 1260.0 mg/kg/injection, schedule: Q01DX Z (ip), vehicle: saline 119 % of control | dose: 1400.0 mg/kg/injection, schedule: Q01DX001 (oral), vehicle: saline 109 % of control
